Experiments:
[1] = system: Mus musculus; assay: Effective dose of the intraperitoneally administered compound causing loss of traction reflex, was tested in N-methyl-D-aspartic acid convulsions model; format: functional; conditions: ip
[2] = system: Mus musculus; assay: Effective dose of the intraperitoneally administered compound protecting mice against tonic seizures, was tested in N-methyl-D-aspartic acid convulsions model; format: functional; conditions: ip
[3] = target: Glutamate NMDA receptor; assay: Inhibition of [3H]-CGS- 19755 binding to N-methyl-D-aspartic acid receptors in rat crude synaptic membranes; format: cell membranes, Membrane
[4] = target: Glutamate NMDA receptor; assay: Inhibition of [3H]-CGS- 19755 binding to N-methyl-D-aspartate glutamate receptor in rat crude synaptic membranes; format: cell membranes, Membrane

| Compound | IC50 [3] [nM] | IC50 [4] [nM] | ED50 [1] [mg/kg] | ED50 [2] [mg/kg] |
| --- | --- | --- | --- | --- |
| O=C(O)C1CN(CCCP(=O)(O)O)CCN1 (stereo not drawn) | 220 | – | 6.1 | 1.9 |
| C[C@@H]1C[C@H](CP(=O)(O)O)C[C@H](C(=O)O)N1 | – | 1600 | 84 | 34 |
| C[C@H]1[C@@H](CP(=O)(O)O)CCN[C@H]1C(=O)O | – | 1300 | 33 | 26 |
| N[C@H](CCCCCP(=O)(O)O)C(=O)O | 912 | – | 188 | 34 |
| O=C(O)[C@H]1C[C@@H](CCCP(=O)(O)O)CCN1 | 98 | – | 5.4 | 2 |
| CN1CC[C@H](CP(=O)(O)O)C[C@@H]1C(=O)O | – | 28000 | – | – |
| N[C@@H](CCCP(=O)(O)O)C(=O)O | 350 | – | > 154 | > 154 |
| O=C(O)[C@@H]1C[C@H](CP(=O)(O)O)CCN1 [SELFOTEL] | 32 | – | 5.4 | 2.1 |

Continued, in another order:

| IC50 [3] [nM] | IC50 [4] [nM] | Compound | ED50 [1] [mg/kg] | ED50 [2] [mg/kg] |
| --- | --- | --- | --- | --- |
| – | 14 | O=C(O)[C@H]1C[C@@H](/C=C/CP(=O)(O)O)CCN1 | 1.9 | 1.2 |
| – | 800 | CC([C@H]1CCN[C@@H](C(=O)O)C1)P(=O)(O)O (stereo partly drawn) | 64 | 21 |
| – | 39 | O=C(O)[C@H]1C[C@H](/C=C/CP(=O)(O)O)CCN1 | 14 | 8.3 |
| – | 78 | C[C@H]1CN[C@@H](C(=O)O)C[C@H]1CP(=O)(O)O | 29 | 7.1 |
| – | 80 | O=C(O)[C@H]1C[C@H](C/C=C/P(=O)(O)O)CCN1 | 20 | 10 |
| – | 1300 | CC(C)([C@H]1CCN[C@@H](C(=O)O)C1)P(=O)(O)O | – | – |
| – | 72 | O=C(O)[C@H]1C[C@@H](C/C=C/P(=O)(O)O)CCN1 | 14 | 2.5 |
| – | 452 | O=C(O)[C@H]1C[C@H](CP(=O)(O)O)CCN1 | – | – |
| – | 105 | O=C(O)[C@H]1C[C@H](CCCP(=O)(O)O)CCN1 | – | – |
